Assay results published in PMC6199251, “Oncolysis with DTT-205 and DTT-304 generates immunological memory in cured animals” (Cell Death & Disease, 2018).

Key:
[1] = test system: caspase-3; assay: Caspase-3 activation (immunostaining of cleaved caspase-3); format: cell-based, human; details: U2OS, 0.65 to 10 µM DTT peptides; staurosporine as positive control
Method: Fig. 3 Cell death induced by DTT-205 and DTT-304. Human osteosarcoma U2OS cells were treated with 0.65 to 10 µM DTT peptides for the indicated time and following assessed for the activation of caspase-3 (CASP3). The pan-kinase inhibitor staurosporine (STS) was used as positive control. Representative images (a, b) and quantifications of CASP3 activation (c, d) are depicted while pyknosis was assessed by measuring the decrease in Hoechst 33342-stained nuclear area (e, f) by conventional microscopy (size bar equals 10 µm; mean ± SD of triplicate assessments, Student’s t test, […], **p < 0.01, ***p < 0.001). In order to assess the cell death modality, U2OS cells were pretreated with the ferroptosis inhibitor ferrostatin-1 (FER-1), the pan-caspase inhibitor zVAD-fmk (zVAD) or the antioxidants N-actylcystein (NAC) and reduced glutathione (GSH) before the addition of 2.5 µM of DTT peptides (g, h). […] Mouse embryonic fibroblasts (MEFs) that were either wild type, single- or double knockout for the proapoptotic proteins Bax and/or Bak were treated with 0.65 to 10 µM of DTT-205 or DTT-304 and viability was assessed by means of an exclusion dye in epifluorescence microscopy (k, l; mean ± SD of triplicate assessments. Student’s t test, […], **p < 0.01, ***p < 0.001). […]

[2] = test system: U2OS cells; assay: Lipid droplet formation (electron microscopy, Nile Red staining); format: cell-based, human; details: 0.65 to 10 µM, 6 h, epifluorescence microscopy
Method: Fig. 1 DTT peptides induce the formation of lipid droplets. Human osteosarcoma U2OS cells were treated with 2.5 µM of either DTT-205 or DTT-304 for 6 h. Cells were fixed and subjected to electron microscopy. The overview micrographs in the upper panel depict necrotic morphologies (N) of some of the treated cells and the high magnification micrographs in the lower panel show the formation of lipid droplets (L) in intact cells. Size bars equals 10 µm (upper panel) and 1 µm (lower panel). Representative images (a) and quantifications (b, c) are depicted (mean ± SD of a minimum of five view fields). The formation of lipid droplets in response to increasing doses from 0.65 to 10 µM DTT peptides was quantified by means of the lipophilic dye Nile Red at 6 h and 24 h post treatment in epifluorescence microscopy. Representative images (d) and quantifications (e, f) are shown (mean ± SD of triplicate assessments, Student’s t test, […], **p < 0.01). Temperature dependency of the lipid droplet formation was assessed by keeping the cell cultures upon treatment with 0.65 to 10 µM DTT-205 (g) and DTT-304 (h) at the indicated temperature for 6 h before Nile Red staining. […]
Figure S2. […] The formation of lipid droplets in response to increasing doses from 0.65 to 10 µM DTT-peptides was quantified by means of the lipophilic dye Nile Red in epifluorescence microscopy. […]

[3] = cited from earlier work
Source text: When added to human cancer cells, DTT-205 or DTT-304 stimulated a necrosis-like disruption of cellular morphology. […] Staining with the red fluorescent lipophilic dye Nile red confirmed the formation of lipid droplets in the cytoplasm of cells treated with DTT-205 or DTT-304 that occurred in a time and dose-dependent fas ...

## CN[C@@H]1C[C@H]2O[C@@](C)([C@@H]1OC)n1c3ccccc3c3c4c(c5c6ccccc6n2c5c31)C(=O)NC4 [staurosporine]
[1]
  caspase-3 activation (fraction of cells positive for mature caspase-3 fragment): a significant fraction of cells

## LTX-315
[2]
  formation of lipid droplets: but not the LTX compounds, induced lipid droplets
[3]
  cytotoxic potential in the presence of serum: lost their cytotoxic potential in the presence of serum
